# In patent publication US6949648B2, “Condensed pyrazole derivatives, process for producing the same and use thereof” (Takeda Pharmaceutical Company Limited, priority 2000, dated 2005):
# Structures can show the parent of a compound that is named as a salt.
# Experiments:
# [1] = tested on: OVA-specific IgE; experiment: Effect on antibody production of ovalbumin-sensitized mice: IgE; format: in vivo, BALB/c mouse; settings: Mus musculus, po, 264 h; 30 mg/kg b.w. orally, 5 days a week during 9-day period; serum 11 days after first sensitization, ELISA; read-out: Suppression Rate (%) IgE
# Description: (§1) Effect on Antibody Production of Mice Sensitized by Controlled-Release Ovalbumin
# (§2) A male BALB/c mouse (Charles River) of 7 weeks old was sensitized by intraabdominal administration, twice at an interval of a week, of a mixture of 10 μg/mouse of ovalbumin (OVA; albumin chicken egg grade III; Sigma Chemical) and 1 mg of aluminum hydroxide hydrate gel suspension (Alum; LSL Co. LTD.). After 11 days from the first sensitization, blood was collected from beneath eye under ether anesthesia, and the amount of OVA-specific IgE, IgG1 (Th2 type) and IgG2a (Th1 type) antibodies in the serum were determined by the ELISA method. A sample compound (30 mg/kg b.w.) was suspended in 0.4 ml of methylcellulose (MC), and the suspension was orally administered, 5 days a week during the 9-day period from the initiation day of sensitization to the day before the day of blood sample collection (1 Group, n=8 to 10).
# [2] = tested on: OVA-specific IgG2a (Th1 type); experiment: Effect on antibody production of ovalbumin-sensitized mice: IgG2a; format: in vivo, BALB/c mouse; settings: Mus musculus, po, 264 h; 30 mg/kg b.w. orally, 5 days a week during 9-day period; serum 11 days after first sensitization, ELISA; read-out: Suppression Rate (%) IgG2a
# Description: as §1, §2
# [3] = tested on: IFN-γ; experiment: Effect on cytokine production of mice sensitized by controlled-release ovalbumin: IFN-γ; format: in vivo, BALB/c mouse; settings: Mus musculus, po; 30 mg/kg b.w. orally, 5 days a week during 9-day period; splenic cells incubated with OVA 3 days, ELISA; read-out: Suppression Rate (%) IFN-γ
# Description: (§3) Effect on Cytokine Production of Mice Sensitized by Controlled-Release Ovalbumin
# (§4) An osmotic pump (Alza Co., USA) containing a solution (100 μL) containing 1.0 mg of ovalbumin (OVA; albumin chicken egg grade III, Sigma Chemical) was implanted in the back of a male BALB/c mouse (Charles River) of 8 weeks old under ether anesthesia, and the mouse is sensitized by the controlled-release ovalbumin. After 11 days from implantation of the pump, a sample of spleen was removed, and a splenic cell suspension was prepared by the use of the RPMI-1640 medium (Bio Whittaker Inc., USA) containing inactivated fetal bovine serum (10% V/V; Bio Whittaker Inc., USA), 2-mercaptoethanol (50 μM), and gentamicin (20 μg/ml). A sample compound (30 mg/kg b.w.) was suspended in 0.4 ml of methylcellulose (MC), and the suspension was orally administered, 5 days a week during the 9-day period from the initiation day of sensitization to the day before the day of blood sample collection (1 Group, n=10). The splenic cell suspension was adjusted to a concentration of 5.0×10^6 cells/ml, and the resulting suspension (100 μl) was pipetted onto a 96 well U-bottomed plate, each of the wells containing a solution (100 μl/well) of 400 μg/ml OVA, and the plate was incubated at 37° C. in a 5% carbon dioxide gas incubator for 3 days. The cultured media were centrifuged at 200×g for 5 minutes, and the supernatants were collected and the production of IL-4, IL-5 and IFN-γ in each of the supernatants was determined by the ELISA method [Mouse IL-4 Bulk Kit (PerSeptive Biosystems), Mouse IL-5 Bulk Kit (PerSeptive Biosystems), and Mouse IFN-γ Bulk Kit (PerSeptive Biosystems)].
# [4] = tested on: IL-5; experiment: Effect on cytokine production of mice sensitized by controlled-release ovalbumin: IL-5; format: in vivo, BALB/c mouse; settings: Mus musculus, po; 30 mg/kg b.w. orally, 5 days a week during 9-day period; splenic cells incubated with OVA 3 days, ELISA; read-out: Suppression Rate (%) IL-5
# Description: as §3, §4
# [5] = tested on: IL-4; experiment: Effect on cytokine production of mice sensitized by controlled-release ovalbumin: IL-4; format: in vivo, BALB/c mouse; settings: Mus musculus, po; 30 mg/kg b.w. orally, 5 days a week during 9-day period; splenic cells incubated with OVA 3 days, ELISA; read-out: Suppression Rate (%) IL-4
# Description: as §3, §4
Structure (SMILES),inhibition in vivo at 30 mg/kg [1] [%],inhibition in vivo at 30 mg/kg [2] [%],inhibition in vivo at 30 mg/kg [3] [%],inhibition in vivo at 30 mg/kg [4] [%],inhibition in vivo at 30 mg/kg [5] [%],melting point [°C]
"Cc1nn(-c2ccccn2)c2[nH]c3ccc(F)cc3c(=O)c12 [Example 1-53, 6-Fluoro-3-methyl-1-(2-pyridinyl)-1,9-dihydro-4H-pyrazolo[3,4-b]quinolin-4-one]",8,36.1,–,–,–,–
"Cc1nn(Cc2ccccn2)c2nc3ccccc3c(N)c12 [Example 1-68, 3-Methyl-1-(2-pyridinylmethyl)-1H-pyrazolo[3,4-b]quinolin-4-ylamine]",31.6,31.7,–,–,–,–
"Cc1nn(-c2ccccn2)c2nc3ccc(F)cc3c(Cl)c12 [Example 1-52, 4-Chloro-6-fluoro-3-methyl-1-(2-pyridinyl)-1H-pyrazolo[3,4-b]quinoline]",41.1,39.9,–,–,–,–
"Cc1nn(-c2ncccn2)c2nc3ccccc3c(N)c12 [Example 1-65, 3-Methyl-1-(2-pyrimidinyl)-1H-pyrazolo[3,4-b]quinolin-4-ylamine hydrochloride]",–,–,-15.7,16.5,8.1,–
"COc1cccc2c(N)c3c(C)nn(-c4ccccn4)c3nc12 [Example 1-48, 8-Methoxy-3-methyl-1-(2-pyridinyl)-1H-pyrazolo[3,4-b]quinolin-4-ylamine hydrochloride]",–,–,-7.6,16.2,31.6,–
"COc1cc2[nH]c3c(c(C)nn3-c3ccccn3)c(=O)c2cc1OC [Example 1-49, 6,7-Dimethoxy-3-methyl-1-(2-pyridinyl)-1,9-dihydro-4H-pyrazolo[3,4-b]quinolin-4-one]",–,–,-9,11.8,13.9,–
"Cc1nn(-c2ccccn2)c2nc(O)cc(-c3ccccc3)c12 [Example 1-27, 3-Methyl-4-phenyl-1-(2-pyridinyl)-1H-pyrazolo[3,4-b]pyridin-6-ol]",24.3,27.1,–,–,–,195 to 196
"CNc1c2ccccc2nc2c1c(C)nn2-c1ccccn1.Cl [Example 1-37, N-Methyl-N-[3-methyl-1-(2-pyridinyl)-1H-pyrazolo[3,4-b]quinolin-4-yl]amine hydrochloride]",29.6,9.6,–,–,–,229 to 232
"CCOC(=O)c1cnc2c(c(C)nn2-c2ccccn2)c1O [Example 1-1, Ethyl 4-hydroxy-3-methyl-1-(2-pyridinyl)-1H-pyrazolo[3,4-b]pyridine-5-carboxylate]",46.3,17.8,–,–,–,166 to 169
"Cc1nn(-c2ccccn2)c2nc(O)c(Cc3ccccc3)c(C)c12 [Example 1-25, 5-Benzyl-3,4-dimethyl-1-(2-pyridinyl)-1H-pyrazolo[3,4-b]pyridin-6-ol]",33.9,16.5,–,–,–,208 to 209
"Cc1nn(-c2ccccn2)c2ncc(C(=O)O)c(O)c12 [Example 1-2, 4-Hydroxy-3-methyl-1-(2-pyridinyl)-1H-pyrazolo[3,4-b]pyridine-5-carboxylic acid]",29.2,-67.9,–,–,–,–
"Cc1nn(-c2ccccn2)c2nccc(O)c12 [Example 1-3, 3-Methyl-1-(2-pyridinyl)-1H-pyrazolo[3,4-b]pyridin-4-ol]",19,-39.5,–,–,–,–
"Cc1ccc(-n2nc(C)c3c(N)c4ccccc4nc32)nc1 [Example 1-54, 3-Methyl-1-(5-methyl-2-pyridinyl)-1H-pyrazolo[3,4-b]quinolin-4-ylamine]",17.6,-148,–,–,–,–
"Cc1nn(-c2ccccn2)c2nc3ccccc3c(N(C)C)c12 [Example 1-38, N,N-Dimethyl-N-[3-methyl-1-(2-pyridinyl)-1H-pyrazolo[3,4-b]quinolin-4-yl]amine]",36.1,-122,–,–,–,98 to 101
"Cc1nn(-c2cccnc2)c2nc3ccccc3c(N)c12 [Example 1-63, 3-Methyl-1-(3-pyridinyl)-1H-pyrazolo[3,4-b]quinolin-4-ylamine dihydrochloride]",25.2,-5.8,–,–,–,–
"Cc1nn(-c2ccccn2)c2nc(-c3ccccc3)cc(O)c12 [Example 1-22, 3-Methyl-6-phenyl-1-(2-pyridinyl)-1H-pyrazolo[3,4-b]pyridin-4-ol]",14,-2.1,–,–,–,198 to 199
"Cc1nn(-c2ccccn2)c2nc(O)c3c(c12)CCCC3 [Example 1-29, 1-Methyl-3-(2-pyridinyl)-6,7,8,9-tetrahydro-3H-pyrazolo[3,4-c]isoquinolin-5-ol]",19.1,-22.6,–,–,–,248 to 249
"Cc1nn(-c2ccccn2)c2[nH]c3ccccc3c(=S)c12 [Example 1-42, 3-Methyl-1-(2-pyridinyl)-1,9-dihydro-4H-pyrazolo[3,4-b]quinolin-4-thione]",24,14.3,–,–,–,252 to 253
"Cc1ccc(-n2nc(C)c3c(=O)c4ccccc4[nH]c32)nc1 [Example 1-55, 3-Methyl-1-(5-methyl-2-pyridinyl)-1,9-dihydro-4H-pyrazolo[3,4-b]quinolin-4-one hydrochloride]",11.7,13.7,–,–,–,–
"Cc1ccc(-n2nc(C)c3c(N)c4ccccc4nc32)nc1 [Example 2-116, 3-Methyl-1-(5-methyl-2-pyridinyl)-1H-pyrazolo[3,4-b]quinolin-4-ylamine]",–,–,–,–,–,229 to 232
"Cc1nn(-c2ncccn2)c2[nH]c3ccccc3c(=O)c12 [Example 2-146, 3-Methyl-1-(2-pyrimidinyl)-1,9-dihydro-4H-pyrazolo[3,4-b]quinolin-4-one]",–,–,–,–,–,263 to 264
"Cc1nn(Cc2cccnc2)c2[nH]c3ccccc3c(=O)c12 [Example 2-191, 3-Methyl-1-(3-pyridinylmethyl)-1,9-dihydro-4H-pyrazolo[3,4-b]quinolin-4-one]",–,–,–,–,–,285 to 288
"Cc1nn(-c2ccccn2)c2[nH]c3cc(N)ccc3c(=O)c12 [Example 2-59, 7-Amino-3-methyl-1-(2-pyridinyl)-1,9-dihydro-4H-pyrazolo[3,4-b]quinolin-4-one]",–,–,–,–,–,284 to 286
"Cc1nn(Cc2ccccn2)c2nc3ccccc3c(Cl)c12 [Example 2-186, 4-Chloro-3-methyl-1-(2-pyridinylmethyl)-1H-pyrazolo[3,4-b]quinoline]",–,–,–,–,–,113 to 115
"Cc1cccnc1-n1nc(C)c2c(=O)c3cccc(C)c3[nH]c21 (as salt: salt) [Example 2-135, 3,8-Dimethyl-1-(3-methyl-2-pyridinyl)-1,9-dihydro-4H-pyrazolo[3,4-b]quinolin-4-one]",–,–,–,–,–,193 to 195
"Cc1nn(-c2ccccn2)c2nc3cc(Cl)ccc3c(Cl)c12 [Example 2-73, 4,7-Dichloro-3-methyl-1-(2-pyridinyl)-1H-pyrazolo[3,4-b]quinoline]",–,–,–,–,–,203 to 204
"Cl.Nc1c2ccccc2nc2c1cnn2-c1ccccn1 [Example 1-67, 1-(2-Pyridinyl)-1H-pyrazolo[3,4-b]quinolin-4-ylamine hydrochloride]",10.5,-30.7,–,–,–,312 to 315
